Measured values taken from ChEMBL document CHEMBL5303573, “Mapping human microbiome drug metabolism by gut bacteria and their genes” (Nature, 2019).

Legend:
[1] = The drug is tested on Collinsella aerofaciens strain: ATCC25986 for biotransformation. The drug concentrations were measured before and after a 12-h incubation by liquid-chromatography-coupled mass spectrometry (LC–MS); conditions: 2 µM
[2] = The drug is tested on Alistipes indistinctus strain: DSM22520 for biotransformation. The drug concentrations were measured before and after a 12-h incubation by liquid-chromatography-coupled mass spectrometry (LC–MS); conditions: 2 µM
[3] = The drug is tested on Bacteroides fragilis strain: HMW615 for biotransformation. The drug concentrations were measured before and after a 12-h incubation by liquid-chromatography-coupled mass spectrometry (LC–MS); conditions: 2 µM
[4] = The drug is tested on Bacteroides vulgatus strain: ATCC8482 for biotransformation. The drug concentrations were measured before and after a 12-h incubation by liquid-chromatography-coupled mass spectrometry (LC–MS); conditions: phocaeicola vulgatus, 2 µM
[5] = The drug is tested on Parabacteroides merdae strain: ATCC43184 for biotransformation. The drug concentrations were measured before and after a 12-h incubation by liquid-chromatography-coupled mass spectrometry (LC–MS); conditions: 2 µM
[6] = The drug is tested on Blautia hansenii strain: DSM20583 for biotransformation. The drug concentrations were measured before and after a 12-h incubation by liquid-chromatography-coupled mass spectrometry (LC–MS); conditions: 2 µM
[7] = The drug is tested on Clostridium sporogenes strain: ATCC15579 for biotransformation. The drug concentrations were measured before and after a 12-h incubation by liquid-chromatography-coupled mass spectrometry (LC–MS); conditions: 2 µM
[8] = The drug is tested on Dorea formicigenerans strain: ATCC27755 for biotransformation. The drug concentrations were measured before and after a 12-h incubation by liquid-chromatography-coupled mass spectrometry (LC–MS); conditions: 2 µM
[9] = The drug is tested on Eubacterium rectale strain: ATCC33656 for biotransformation. The drug concentrations were measured before and after a 12-h incubation by liquid-chromatography-coupled mass spectrometry (LC–MS); conditions: agathobacter rectalis, 2 µM
[10] = The drug is tested on Ruminococcus gnavus strain: ATCC29149 for biotransformation. The drug concentrations were measured before and after a 12-h incubation by liquid-chromatography-coupled mass spectrometry (LC–MS); conditions: mediterraneibacter gnavus, 2 µM
[11] = The drug is tested on Ruminococcus lactaris strain: ATCC29176 for biotransformation. The drug concentrations were measured before and after a 12-h incubation by liquid-chromatography-coupled mass spectrometry (LC–MS); conditions: 2 µM
[12] = The drug is tested on Subdoligranulum variabile strain: DSM15176 for biotransformation. The drug concentrations were measured before and after a 12-h incubation by liquid-chromatography-coupled mass spectrometry (LC–MS); conditions: 2 µM
[13] = The drug is tested on Providencia stuartii strain: ATCC25827 for biotransformation. The drug concentrations were measured before and after a 12-h incubation by liquid-chromatography-coupled mass spectrometry (LC–MS); conditions: 2 µM
[14] = bacteroides fragilis, 12 h, 2 µM
Description: The drug is tested on Bacteroides fragilis strain: NCTC 9343 for biotransformation. The drug concentrations were measured before and after a 12-h incubation by liquid-chromatography-coupled mass spectrometry (LC–MS)

[15] = bacteroides fragilis, 12 h, 2 µM; remark: listed apart in the source
Description: The drug is tested on Bacteroides fragilis strain: 3397 (T10) for biotransformation. The drug concentrations were measured before and after a 12-h incubation by liquid-chromatography-coupled mass spectrometry (LC–MS)

[16] = parabacteroides johnsonii, 12 h, 2 µM
Description: The drug is tested on Parabacteroides johnsonii strain: DSM18315 for biotransformation. The drug concentrations were measured before and after a 12-h incubation by liquid-chromatography-coupled mass spectrometry (LC–MS)

[17] = segatella copri, 12 h, 2 µM
Description: The drug is tested on Prevotella copri strain: DSM18205 for biotransformation. The drug concentrations were measured before and after a 12-h incubation by liquid-chromatography-coupled mass spectrometry (LC–MS)

[18] = enterocloster bolteae, 12 h, 2 µM
Description: The drug is tested on Clostridium bolteae strain: ATCCBAA-613 for biotransformation. The drug concentrations were measured before and after a 12-h incubation by liquid-chromatography-coupled mass spectrometry (LC–MS)

[19] = roseburia intestinalis, 12 h, 2 µM
Description: The drug is tested on Roseburia intestinalis strain: L1-82 for biotransformation. The drug concentrations were measured before and after a 12-h incubation by liquid-chromatography-coupled mass spectrometry (LC–MS)

[20] = victivallis vadensis, 12 h, 2 µM
Description: The drug is tested on Victivallis vadensis strain: ATCC BAA-548 for biotransformation. The drug concentrations were measured before and after a 12-h incubation by liquid-chromatography-coupled mass spectrometry (LC–MS)

Bacterial Biotransformation [1]	Bacterial Biotransformation [2]	Bacterial Biotransformation [3]	Bacterial Biotransformation [4]	Bacterial Biotransformation [5]	Bacterial Biotransformation [6]	Bacterial Biotransformation [7]	Bacterial Biotransformation [8]	Bacterial Biotransformation [9]	Bacterial Biotransformation [10]	Bacterial Biotransformation [11]	Bacterial Biotransformation [12]	Bacterial Biotransformation [13]	Bacterial Biotransformation [14]	Bacterial Biotransformation [15]	Bacterial Biotransformation [16]	Bacterial Biotransformation [17]	Bacterial Biotransformation [18]	Bacterial Biotransformation [19]	Bacterial Biotransformation [20]	Structure (SMILES)
Compound metabolized	Compound metabolized	Compound metabolized	Compound metabolized	Compound metabolized	Compound NOT metabolized	Compound metabolized	Compound metabolized	Compound metabolized	Compound metabolized	Compound metabolized	Compound metabolized	Compound metabolized	Compound metabolized	Compound metabolized	Compound metabolized	Compound metabolized	Compound metabolized	Compound metabolized	Compound metabolized	CC(=O)Nc1ccc(OC(C)=O)cc1 [DIACETAMATE]
Compound metabolized	Compound metabolized	Compound metabolized	Compound metabolized	Compound metabolized	Compound metabolized	Compound metabolized	Compound metabolized	Compound metabolized	Compound metabolized	Compound metabolized	Compound metabolized	Compound metabolized	Compound metabolized	Compound metabolized	Compound metabolized	Compound metabolized	Compound metabolized	Compound metabolized	Compound metabolized	CCN(CC)C(=O)/C(C#N)=C/c1cc(O)c(O)c([N+](=O)[O-])c1 [ENTACAPONE]
Compound metabolized	Compound metabolized	Compound NOT metabolized	Compound NOT metabolized	Compound metabolized	Compound metabolized	Compound metabolized	Compound metabolized	Compound metabolized	Compound metabolized	Compound metabolized	Compound metabolized	Compound metabolized	Compound metabolized	Compound metabolized	Compound metabolized	Compound metabolized	Compound metabolized	Compound metabolized	Compound metabolized	CCOc1ccc2nc(S(N)(=O)=O)sc2c1 [ETHOXZOLAMIDE]
Compound metabolized	Compound metabolized	Compound NOT metabolized	Compound metabolized	Compound metabolized	Compound metabolized	Compound metabolized	Compound metabolized	Compound metabolized	Compound metabolized	Compound metabolized	Compound metabolized	Compound metabolized	Compound metabolized	Compound metabolized	Compound metabolized	Compound metabolized	Compound metabolized	Compound metabolized	Compound metabolized	CC(Oc1c(Cl)cccc1Cl)C1=NCCN1 (stereo not given) [LOFEXIDINE]
